Test results taken from patent US20080286388A1, “Pharmaceutical Composition and Non Dependence Coffee Comprising Edible Carboxylic Acid and/or Its Acid Salts and Coffeine” (priority 2004, published 2008).
Values joined by “and” are separate entries in the source; they are usually repeats but may differ in a detail not shown here. Equal values may be shown once. Where a name gives a salt, the structure may show the parent alone. Read-outs that look alike come from different tables or passages of the source.

Key:
person = assay: Tests for increase the ability of learning and memory; type: in vivo, human; conditions: Homo sapiens, po; three pieces of 600 mg, average of four tests before and after ingesting; read-out: Increase rate (%) of memory ability
Protocol: A person administrates see a random series of 100 numbers, typed by PC, for 10 minutes and memory it. Then recite and write down the memorized number series. To check the recited series with the original one to see how many numbers are correct. In each testing at least has 10 minutes interval, and repeat four times. […] Each kind of drugs testing is done in half day, morning or afternoon only. The testing results were counted by one correct number for one point. Make the average value of four times testing of before and after drug ingesting, respectively. The increase of learning or memory ability is calculated by following equation and listed in Table 14: Rate of increase of memory ability=[(average value of four time testing before ingesting drug)−(average value of four times testing after ingesting drug)]×100%/(average value of four time testing before ingesting drug)

[1] = system: mouse's leaching cell solution (abdominal cavity cells), histamine release by 48/80 compound; assay: Drug inhibiting effect on histamine leaching from mouse abdominal cavity cells treated with 48/80 compound; type: cell-based; conditions: Mus musculus, testing drug 100 μg/ml
Protocol: This is a comparative testing for drug depressing effect on the amount of leaching histamines when is treated with 48/80 (Sigma, St. MO, USA) compound.
(1). Preparation of Leaching Cell Solution from Mouse Body.
A mouse is killed and bloodletting. Then 10 ml of Locke's solution containing 0.1% bovine serum protein is injected into its abdominal cavity. After abdominal cavity being light massaged, the cavity is cut and the Locke's solution is removed. Cavity is washed with another 5 ml of Locke's solution, and this washed solution is added to the latter one. This combined solution is centrifuged at 600 rpm for 5 minutes. The sediments are washed with 5 ml of cool Locke's solution. Adding 3 ml of cold Locke's solution to the washed sediments, then a leached cell solution of abdominal cavity is obtained. (The composition of Locke's solution is: NaCL […], KCL 0.2%, CaCL2 0.15%, glucose 1.0%, in w/v, and the rest distillated water.)
(2). Drug Inhibiting Effect on the Amount of Leaching Histamines when Treated with 48/80 Compound.
1.0 ml of each of those solutions in last term is mixed with 0.3 ml of mouse's leaching cell solution and 0.5 ml of Locke's solution. This mixture is cultivated at 37° C. for 5 minutes. Then adding 0.2 ml of Locke's solution of 48/80 compound (1 mg/100 ml) and cultivated at 37° C. for 10 minutes. Then the reaction is stopped by cooling, and centrifuged at 2,500 rpm for 10 minutes. 1.7 ml of decanted solution and 0.3 ml of sediments are obtained.
0.1 ml of water and 0.2 ml of 100% trichloroacetic acid are added to the decanted solution. 1.5 ml of Locke's solution and 0.2 ml of 100% trichloroacetic acid are added to the sediments washed solution. They are cultivated at room temperature for 30 minutes. After cultivation, the mixtures are centrifuged at 3,000 rpm for 15 minutes, respectively. 0.35 ml of each of the former two solutions is sampled. In each sample, 1.65 ml of water, 0.4 ml of 1N NaOH and 0.1 ml of 0.5% OPT (o-phthalic aldehyde) in methanol are added and cultivated at room temperature for 4 minutes. The reaction is stopped by adding 0.2 ml of 2M citric acid. And finally, determine the amount of released histamines in the tested solution by fluorescence method. By the analysis, results of the inhibiting rate of histamines could be calculated.
Locke's solution is instead of each drug in control group, and instead of both drug and 48/80 compound solution in blank group.
The histamine releasing rate (A) can be calculated by following equation. […] Where (Hs) is the total amount of histamine in the decanted solution, and (Hr) is the total amount of histamine in the sediment. (A)=[(Hs)/{(Hs)+(Hr)}]×100%. Then the inhibiting rate is:
=100−[(A−A in blank group)/(A−A in control group)]×100%.

mice = assay: Anti-delayed type allergy reaction, oxazolone ear inflammation; type: in vivo, mouse; conditions: drug 2.0 w/v % in oxazolone acetone solution, 10 μl on right ear, 24 hr; for Inhibiting rate (%) (adding 0.1 w/v % of drug): with 0.1 w/v % of caffeine; for Inhibiting rate (%) (non-caffeine added): without caffeine
Protocol: The weights of testing mice are ranging from 20 g to 30 g. They are coated with 0.1 ml of oxazolone alcohol solution (0.5 w/v %) on the hair cleaned part of abdomen. […] After 24 hr, the mouse is killed by ether and punched a circle area of a diameter of 5.5 mm on both right and left ears in corresponding part by a puncher machine (portions of drug coated and the blank). The punched portions are weighed and the inflammation rates calculated. The control group are coated only with the oxazolone acetone solution (0.5 w/v %). The inflammation inhibiting rates of each drug are calculated by following equation: Inflammation inhibiting rate (%)=[(weight of drug-coated right ear)−(weight of non-drug-coated left ear)]×100%/(weight of non-drug-coated left ear)

[2] = system: patients with toothache caused by a crowned tooth swelling; assay: Analgesia and suppuration for tooth; type: in vivo, human; conditions: 2 g every two hours
Source text: It is not a best method in treating a toothache caused by a crowned tooth swelling that the ill tooth must be extracted or the crown must be destructed first. […] About 8 and 10 days were needed to suppurate and recovery completely when they could chew again. This method can keep the ill tooth without extraction.

[3] = adding 5% of coffee extract, read-out: inhibiting rate (%) (adding 5% of coffee extract)
[4] = non adding coffee extract, read-out: Inhibiting rate (%) (non adding coffee extract)

Structure (SMILES)	change in vivo at 1800 mg (person) [%]	inhibition at 100 µg/mL [1, 3] [%]	inhibition at 100 µg/mL [1, 4] [%]	Inhibiting rate (%) (adding 0.1 w/v % of drug) (mice)	Inhibiting rate (%) (non-caffeine added) (mice)	Days needed to suppurate and recovery completely ([2]; one value per patient)	Toothache pain ([2]; two patients)
CC(O)C(=O)O (stereo not shown) [Lactic acid]	280	100	100	98	97	–	–
O=C(O)/C=C/C(=O)O [Fumaric acid]	300	100	100	100	98	–	–
O=C(O)CC(O)(CC(=O)O)C(=O)O [Citric acid]	360	100	100	100	100	–	–
O=C(O)CC(O)C(=O)O (stereo not shown) [Malic acid]	315	100	100	100	96	About 8 days and ~10 days	pains were killed
CN(C)CCOC(c1ccccc1)c1ccccc1 [Diphenhydramine hydrochloride, reference compound]	–	50.4	32.1	20	20	–	–
CCCCCCC(O)C(=O)O (stereo not drawn) [α-hydroxy octanoic acid]	300	100	100	–	–	–	–
O=C1O[C@H](CO)[C@@H](O)[C@H](O)[C@H]1O [gluconolactone]	290	100	100	–	–	–	–
O=C(O)C(O)C(O)C(=O)O (stereo not shown) [Tartaric acid]	305	100	100	99	97	–	–
